Key:
[1] = system: HUVEC
Protocol: (§1) Human Umbilical Vein Endothelial Cells (HUVEC), complete endothelial growth medium-2 (EGM-2) and bullet kit were purchased from Lonza (Walkersville, Md.). Cells were grown and maintained in a humidified 37° C. and 5% CO2 atmosphere. Cells were expanded on T75 cm^2 polystyrene flasks to passage 5 and plated onto 6-well plates for experimental assays (Fischer Scientific, Pittsburgh, Pa.). MCEC, a normal mouse cardiac endothelial cell line from Cedarlane (Ontario, Canada), were cultured in Dulbecco's Modified Eagle Medium (DMEM) (Life Technologies, CA) supplemented with 10% fetal bovine serum (FBS) in a 37° C. incubator with humidified room air and 5% CO2.
(§2) M-Per lysis of Ecs was used as an assay control.

[2] = system: MCEC
Protocol: as §1, §2

[3] = system: aortic allograft; assay: Aortic allograft model of chronic allograft rejection (Balb/c to C57Bl/6); assay type: in vivo, mouse; conditions: 100 or 1000 ng/ml tested; quantified intimal thickening
Protocol: Male Balb/c (H-2^d) and C57BL/6 (B6;H-2^b) mice (8-10 weeks) were obtained from Jackson laboratory (Bar Harbor, Me.). All mice weighed 25-30 g and were housed under specific pathogen-free conditions at the Medical University of South Carolina (Charleston, S.C.) and were used for transplantation studies. In the following series, transplants to male B6 mice were performed under clean conditions using Balb/c donors in the allograft group (Balb/c to B6, n=20) and B6 donors in the isograft group (B6 to B6, n=10). The mice were anesthetized with intraperitoneal injections of ketamine (75 mg/kg, Lloyd Laboratories, Shenandoah, Iowa, USA) and xylazine (16 mg/kg, Vedco, Inc., St. Joseph, Mo., USA) diluted in sterile normal saline. An operating microscope with 16×magnification was used for the surgical procedure. The cuff used for the anastamosis consisted of a 0.6 mm body and a 0.6 mm extension crafted from a 24 gauge polyimide catheter (inner diameter 0.5 mm, wall thickness 0.025 mm, cat. No. 141-0027, Vention Medical, NH, USA).
After satisfactory anesthetic was administered, the donor mouse was placed in supine position and a midline thoraco-abdominal incision was made. […] For orthotopic transplantation, the bowel was reflected cephalad, the colon was retracted to the animal's left side, and the seminal vesicles and testes were distracted caudally. […]

[4] = molecular target: integrin αVβ3 on human umbilical vein endothelial cells (HUVEC) (human) (UniProt P06756); assay: cell-based or functional assay
Sequence of integrin αVβ3 on human umbilical vein endothelial cells (HUVEC) (human) (P06756 31-1048, chain 1 of 2): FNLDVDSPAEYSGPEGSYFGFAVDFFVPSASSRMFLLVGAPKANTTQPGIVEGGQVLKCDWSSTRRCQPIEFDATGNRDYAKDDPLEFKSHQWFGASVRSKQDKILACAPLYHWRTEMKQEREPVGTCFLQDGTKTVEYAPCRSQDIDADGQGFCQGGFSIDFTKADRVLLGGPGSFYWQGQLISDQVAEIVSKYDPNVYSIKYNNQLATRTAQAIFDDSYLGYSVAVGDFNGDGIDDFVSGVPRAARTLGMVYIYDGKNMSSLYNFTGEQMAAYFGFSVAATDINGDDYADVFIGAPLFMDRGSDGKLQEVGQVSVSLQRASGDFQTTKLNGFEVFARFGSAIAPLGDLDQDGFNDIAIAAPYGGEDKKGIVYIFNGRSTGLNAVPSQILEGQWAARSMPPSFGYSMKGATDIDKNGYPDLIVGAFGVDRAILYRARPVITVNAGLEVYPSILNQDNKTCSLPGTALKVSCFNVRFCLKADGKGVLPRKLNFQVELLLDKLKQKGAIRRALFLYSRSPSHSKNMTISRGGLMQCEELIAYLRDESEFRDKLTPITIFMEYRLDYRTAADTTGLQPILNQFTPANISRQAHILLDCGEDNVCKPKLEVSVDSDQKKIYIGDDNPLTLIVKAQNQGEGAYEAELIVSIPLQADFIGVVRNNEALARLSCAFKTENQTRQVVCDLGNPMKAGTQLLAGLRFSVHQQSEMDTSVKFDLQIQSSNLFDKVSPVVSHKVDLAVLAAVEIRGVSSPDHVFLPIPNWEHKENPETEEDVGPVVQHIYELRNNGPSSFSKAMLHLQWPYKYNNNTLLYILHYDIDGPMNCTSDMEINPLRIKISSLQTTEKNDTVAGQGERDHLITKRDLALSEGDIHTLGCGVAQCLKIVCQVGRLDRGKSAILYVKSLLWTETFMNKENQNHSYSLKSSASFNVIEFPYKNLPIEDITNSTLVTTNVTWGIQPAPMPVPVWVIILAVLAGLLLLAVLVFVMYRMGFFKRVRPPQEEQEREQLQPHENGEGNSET
Sequence of integrin αVβ3 on human umbilical vein endothelial cells (HUVEC) (human) (P05106 27-788, chain 2 of 2, further chain): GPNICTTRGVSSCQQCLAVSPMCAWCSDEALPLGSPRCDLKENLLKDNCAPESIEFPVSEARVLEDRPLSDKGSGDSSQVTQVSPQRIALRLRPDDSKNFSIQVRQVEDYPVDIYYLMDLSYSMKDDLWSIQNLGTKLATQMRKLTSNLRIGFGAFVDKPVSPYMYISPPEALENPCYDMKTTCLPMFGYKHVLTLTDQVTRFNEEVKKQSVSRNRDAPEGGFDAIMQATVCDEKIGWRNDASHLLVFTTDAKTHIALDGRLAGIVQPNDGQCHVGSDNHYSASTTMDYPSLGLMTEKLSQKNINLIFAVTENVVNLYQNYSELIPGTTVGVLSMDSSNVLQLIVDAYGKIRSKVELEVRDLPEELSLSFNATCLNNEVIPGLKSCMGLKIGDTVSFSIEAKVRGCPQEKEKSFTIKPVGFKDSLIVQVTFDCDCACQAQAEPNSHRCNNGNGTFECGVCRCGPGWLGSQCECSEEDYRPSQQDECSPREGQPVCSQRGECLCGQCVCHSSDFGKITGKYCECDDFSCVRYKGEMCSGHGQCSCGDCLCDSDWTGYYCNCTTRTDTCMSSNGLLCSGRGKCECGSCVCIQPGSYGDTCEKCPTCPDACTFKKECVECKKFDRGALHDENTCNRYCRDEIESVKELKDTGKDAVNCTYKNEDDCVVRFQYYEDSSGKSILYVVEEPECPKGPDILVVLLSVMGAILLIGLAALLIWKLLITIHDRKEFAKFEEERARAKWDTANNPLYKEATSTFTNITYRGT

increase of fluorescence in HUVEC over a 6 hours period, without brefeldin A (-BA) [4] | micelle internalization into HUVEC (confocal microscopy, Dylight 680 fluorescence) compared to untargeted RaM [4] | Molecule | cell toxicity and death (MTS cell viability) [1] | concentration that did induce toxicity ([1]; human, 6 h) | cell toxicity and death (MTS cell viability) [2] | concentration that did induce toxicity ([2]; mouse, 6 h) | dose in Belzer UW solution that provided protection [3]
– | – | CO[C@H]1C[C@@H]2CC[C@@H](C)[C@@](O)(O2)C(=O)C(=O)N2CCCC[C@H]2C(=O)O[C@H]([C@H](C)C[C@@H]2CC[C@@H](O)[C@H](OC)C2)CC(=O)[C@H](C)/C=C(\C)[C@@H](O)[C@@H](OC)C(=O)[C@H](C)C[C@H](C)/C=C/C=C/C=C/1C [free rapamycin, rapamycin] | do not result in significant cell toxicity and death | 3000 ng/mL | do not result in significant cell toxicity and death | 3000 ng/mL | 1000 ng/mL
88% | > 50% | Targeted Rapamycin Micelles (TRaM): rapamycin micelles bearing the cyclic peptide arginine-glycine-aspartate (cRGD) on the surface, labeled with Dylight 680 | – | – | – | – | –
